As a reminder, the GI50 is the concentration giving 50% growth inhibition. By IC50 is commonly meant the concentration that gives 50% inhibition. One may read the AC50 as the concentration at which the activity in the assay is half-maximal.

The values that follow come from patent publication US20260285853A1, “COMPOUNDS AND METHODS FOR MODULATING SPLICING” (REMIX THERAPEUTICS INC., priority 2023, published 2026).

Holding throughout (format): cell-based
Experiment [1] deals with SH-SY5Y (human neuroblastoma) cells. Kind of experiment: Cell viability, Cell Titer Glo 2.0 assay. Conditions: read-out: Viability SHSY5Y.3 GI50. In short, it runs like this: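 Following a 72 h incubation (37 °C, 5% CO2, 0.1% DMSO final), compound toxicity toward SH-SY5Y cells was quantified by CellTiter-Glo 2.0.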
Background: ATP-based viability assays read luminescence as a measure of living cells.

In experiment [2] the test system is MYB mRNA. Kind of experiment: Gene panel canonical junction qPCR assay, decrease in CJ mRNA, Table 3. Conditions: decrease in CJ mRNA levels, canonical junction qPCR, gene panel. In a few lines:
(§1)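 Eleven-point dose responses from 10 uM final, 24 h, DMSO ≤0.25%, in A673 or K562 cells. Relative quantification by 2^(−ΔΔCt) against housekeeper and vehicle was converted to percent response over fixed ΔCt windows and fitted to yield IC50.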

In experiment [3] the test system is HTT mRNA. The description is as above. Conditions: decrease in CJ mRNA levels, canonical junction qPCR, gene panel. In a few lines:
as §1

The test system of experiment [4] is MYB mRNA. Kind of experiment: Splicing RT-qPCR assay (THP), Table 2A. Particulars: Table 2A, THP; for AC50: MYB alternative junction (AJ) mRNA, read-out: MYB AJ (AC50, increase in alternative junction mRNA); for IC50: MYB canonical junction (CJ) mRNA, read-out: MYB CJ (IC50, decrease in canonical junction mRNA). (In qPCR the cycle at which signal appears reflects the starting amount.)

Experiment [5] has as its system HTT mRNA. Kind of experiment: Splicing RT-qPCR assay (THP), Table 2A. Conditions: Table 2A, THP; for AC50: HTT alternative junction (AJ) mRNA, read-out: HTT AJ (AC50, increase in alternative junction mRNA); for IC50: HTT canonical junction (CJ) mRNA, read-out: HTT CJ (IC50, decrease in canonical junction mRNA).

Take `Cc1cn2cc(NC(=O)c3ccc(N4CCC(NC5CC5)CC4)c4cc(CF)nn34)cc(F)c2n1` [Compound 623, 4-[4-(cyclopropylamino)-1-piperidyl]-2-(fluoromethyl)-N-(8-fluoro-2-methyl-imidazo[1,2-a]-pyridin-6-y1)pyrazolo[1,5-a]pyridine-7-carboxamide]: the GI50 in experiment [1] lay within 100 to 1000 nM. The IC50 in the experiment with MYB mRNA [2] is below 100 nM; with HTT mRNA [3], 100 to 1000 nM; in the experiment with MYB mRNA [4], below 100 nM; in the experiment with HTT mRNA [5], 100 to 1000 nM. Also, the AC50 in the experiment on MYB mRNA [4] is below 100 nM; in the experiment with HTT mRNA [5], 100 to 1000 nM.

Take `COc1cc2nn(C)cc2cc1NC(=O)c1c(F)cc(N2CCC(NC3CC3)CC2)c2cc(C)nn12` [Compound 624, 4-[4-(cyclopropylamino)-1-piperidyl]-6-fluoro-N-(6-methoxy-2-methyl-indazol-5-yl)-2-methyl-pyrazolo[1,5-a]pyridine-7-carboxamide]: in experiment [1], the concentration for 50% growth inhibition (GI50) is above 10000 nM. Also, the 50% inhibitory concentration (IC50) in the experiment on MYB mRNA [2], in the experiment on HTT mRNA [3], in the experiment on MYB mRNA [4] and in the experiment on HTT mRNA [5] was above 10000 nM in each case. The concentration at half-maximal activity (AC50) with MYB mRNA [4] and with HTT mRNA [5] was above 10000 nM each time.

On to `COc1cc2nn(C)cc2cc1NC(=O)c1ccc(N2CCC(NC3CC3)CC2)c2cc(CF)nn12` [Compound 625, 4-[4-(cyclopropylamino)-1-piperidyl]-2-(fluoromethyl)-N-(6-methoxy-2-methyl-indazol-5-yl)pyrazolo[1,5-a]-pyridine-7-carboxamide], for which the concentration for 50% growth inhibition (GI50) in experiment [1] was in the range of 100 to 1000 nM. Moreover, the IC50 in the experiment with MYB mRNA [2] was below 100 nM; with HTT mRNA [3], 100 to 1000 nM; in the experiment on MYB mRNA [4], below 100 nM; with HTT mRNA [5], 100 to 1000 nM. For the same compound, the AC50 is below 100 nM in the experiment with MYB mRNA [4] and 100 to 1000 nM with HTT mRNA [5].

For `COc1cc2nc(C)cn2cc1NC(=O)c1c(F)cc(N2CCC(NC3CC3)CC2)c2cc(C)nn12` [Compound 626, 4-[4-(cyclopropylamino)-1-piperidyl]-6-fluoro-N-(7-methoxy-2-methylimidazo-[1,2-a]pyridin-6-yl)-2-methylpyrazolo-[1,5-a]pyridine-7-carboxamide], the GI50 in experiment [1] is above 10000 nM. For the same compound, the half-maximal inhibitory concentration (IC50) in the experiment with MYB mRNA [2], in the experiment on HTT mRNA [3], with MYB mRNA [4] and in the experiment on HTT mRNA [5] was above 10000 nM in each case. In addition, the AC50 in the experiment with MYB mRNA [4] and in the experiment on HTT mRNA [5] was above 10000 nM in each case.

In the case of `COc1cc2nn(C)cc2cc1NC(=O)c1c(Cl)cc(N2CCC(NC3CC3)CC2)n2cc(C)nc12` [Compound 627, 7-chloro-5-(4-(cyclopropylamino)piperidin-1-yl)-N-(6-methoxy-2-methyl-2H-indazol-5-yl)-2-methylimidazo[1,2-a]pyridine-8-carboxamide 2,2,2-trifluoroacetate], the GI50 in experiment [1] is above 10000 nM. The IC50 in the experiment with MYB mRNA [2], with HTT mRNA [3], with MYB mRNA [4] and with HTT mRNA [5] was above 10000 nM in each case. Also, the AC50 with MYB mRNA [4] and in the experiment with HTT mRNA [5] was above 10000 nM each time.

On to `CCNC1CCN(c2ccc(C(=O)Nc3cc4cn(C)nc4cc3OC)c3nc(C)cn23)CC1` [Compound 628, 5-[4-(ethylamino)-1-piperidyl]-N-(6-methoxy-2-methyl-indazol-5-yl)-2-methyl-imidazo[1,2-a]pyridine-8-carboxamide], for which, in experiment [1], the 50% growth inhibitory concentration (GI50) fell in the range of 100 to 1000 nM. The IC50 with MYB mRNA [2] is below 100 nM; with HTT mRNA [3], 100 to 1000 nM; in the experiment on MYB mRNA [4], below 100 nM; with HTT mRNA [5] it was 100 to 1000 nM. Further, the AC50 with MYB mRNA [4] was below 100 nM; with HTT mRNA [5], 100 to 1000 nM.

For the compound `COCCOCc1cc2c(N3CCC(NC4CC4)CC3)ccc(C(=O)Nc3cc(F)c4nc(C)cn4c3)n2n1` [Compound 629, 4-[4-(cyclopropylamino)-1-piperidyl]-N-(8-fluoro-2-methyl-imidazo[1,2-a]-pyridin-6-y1)-2-(2-methoxyethoxy-methyl)-pyrazolo[1,5-a]pyridine-7-carboxamide], in experiment [1], the GI50 fell in the range of 100 to 1000 nM. The IC50 in the experiment on MYB mRNA [2] is below 100 nM; in the experiment on HTT mRNA [3] it was 100 to 1000 nM; with MYB mRNA [4], below 100 nM; with HTT mRNA [5] it was 100 to 1000 nM. In addition, the AC50 is below 100 nM in the experiment with MYB mRNA [4] and 1000 to 10000 nM with HTT mRNA [5].

As to `COc1c(NC(=O)c2ccc(N3CCC(NC4CC4)CC3)c3cc(C)nn23)cn2cc(C)nc(C)c12` [Compound 630, 4-[4-(cyclopropylamino)-1-piperidyl]-N-(8-methoxy-1,3-dimethyl-pyrrolo[1,2-a]pyrazin-7-yl)-2-methyl-pyrazolo[1,5-a]pyridine-7-carboxamide], in experiment [1], the GI50 lay in the range of 1000 to 10000 nM. For the same compound, the IC50 with MYB mRNA [2], in the experiment on HTT mRNA [3], in the experiment on MYB mRNA [4] and in the experiment with HTT mRNA [5] was 1000 to 10000 nM throughout. The AC50 in the experiment on MYB mRNA [4] and with HTT mRNA [5] was 1000 to 10000 nM in each case.

For the compound `COc1c(NC(=O)c2ccc(N3CCC(NC4CC4)CC3)n3cc(C)nc23)cn2cc(C)nc(C)c12` [Compound 631, 5-[4-(cyclopropylamino)-1-piperidyl]-N-(8-methoxy-1,3-dimethyl-pyrrolo[1,2-a]pyrazin-7-yl)-2-methyl-imidazo[1,2-a]pyridine-8-carboxamide], the GI50 in experiment [1] lay in the range of 1000 to 10000 nM. For the same compound, the half-inhibitory concentration (IC50) in the experiment with MYB mRNA [2], with HTT mRNA [3], with MYB mRNA [4] and in the experiment with HTT mRNA [5] was 1000 to 10000 nM each time. Besides, the half-maximal activity concentration (AC50) in the experiment on MYB mRNA [4] and in the experiment on HTT mRNA [5] was 1000 to 10000 nM throughout.

`COc1cc2c(N3CCC(NC4CC4)CC3)ccc(C(=O)Nc3cc4cn(C)nc4cc3OC)n2n1` [Compound 632, 4-[4-(cyclopropylamino)-1-piperidyl]-2-methoxy-N-(6-methoxy-2-methyl-indazol-5-yl) pyrazolo[1,5-a]pyridine-7-carboxamide]: the GI50 in experiment [1] lay in the range of 1000 to 10000 nM. Moreover, the half-inhibitory concentration (IC50) is below 100 nM with MYB mRNA [2], 100 to 1000 nM in the experiment on HTT mRNA [3], below 100 nM in the experiment on MYB mRNA [4] and 100 to 1000 nM in the experiment on HTT mRNA [5]. The AC50 with MYB mRNA [4] is below 100 nM; in the experiment on HTT mRNA [5], 100 to 1000 nM.

Consider `COc1cc2c(N3CCC(NC4CC4)CC3)ccc(C(=O)Nc3cn4cc(C)nc(C)c4n3)n2n1` [Compound 633, 4-[4-(cyclopropyl-amino)-1-piperidyl]-N-(6,8-dimethyl-imidazo[1,2-a]pyrazin-2-yl)-2-methoxypyrazolo [1,5-a]-pyridine-7-carboxamide], for which, in experiment [1], the GI50 is above 10000 nM. The IC50 was 100 to 1000 nM with MYB mRNA [2], above 10000 nM in the experiment with HTT mRNA [3], 100 to 1000 nM in the experiment with MYB mRNA [4] and above 10000 nM in the experiment on HTT mRNA [5]. Besides, the figures for the AC50 in the experiment with MYB mRNA [4] and in the experiment with HTT mRNA [5] were 100 to 1000 nM and above 10000 nM, respectively.

In the case of `COc1cc2c(N3CCC(NC4CC4)CC3)ccc(C(=O)Nc3cn4cc(C)nc4c(OC)n3)n2n1` [Compound 634, 4-[4-(cyclopropyl-amino)-1-piperidyl]-2-methoxy-N-(8-methoxy-2-methylimidazo[1,2-a]pyrazin-6-yl)-pyrazolo[1,5-a]pyridine-7-carboxamide], in experiment [1], the GI50 fell in the range of 100 to 1000 nM. Besides, the IC50 in the experiment on MYB mRNA [2], in the experiment with HTT mRNA [3], with MYB mRNA [4] and with HTT mRNA [5] was below 100 nM in each case. Besides, the AC50 in the experiment with MYB mRNA [4] and in the experiment with HTT mRNA [5] was below 100 nM throughout.

On to `Cc1cn2cc(NC(=O)c3ccc(N4CCC(NC5CC5)CC4)n4nc(C)nc34)cc(F)c2n1` [Compound 640, 5-[4-(cyclopropylamino)-1-piperidyl]-N-(8-fluoro-2-methyl-imidazo[1,2-a]pyridin-6-yl)-2-methyl-[1,2,4]-triazolo[1,5-a]-pyridine-8-carboxamide], for which, in experiment [1], the concentration for 50% growth inhibition (GI50) is 100 to 1000 nM. Further, the half-maximal inhibitory concentration (IC50) with MYB mRNA [2] was below 100 nM; with HTT mRNA [3], 100 to 1000 nM; with MYB mRNA [4], below 100 nM; in the experiment with HTT mRNA [5], 100 to 1000 nM. The AC50 is below 100 nM with MYB mRNA [4] and 100 to 1000 nM in the experiment with HTT mRNA [5].

Turning to `Cc1cn2cc(NC(=O)c3ccc(N4CCC(NC5CC5)CC4)n4nc(C)nc34)nc2c(C)n1` [Compound 641, 5-[4-(cyclopropylamino)-1-piperidyl]-N-(6,8-dimethylimidazo-[1,2-a]pyrazin-2-yl)-2-methyl-[1,2,4]-triazolo[1,5-a]pyridine-8-carboxamide], in experiment [1], the GI50 was 100 to 1000 nM. The IC50 with MYB mRNA [2], in the experiment on HTT mRNA [3], with MYB mRNA [4] and in the experiment on HTT mRNA [5] was 100 to 1000 nM throughout. The AC50 with MYB mRNA [4] and in the experiment with HTT mRNA [5] was 100 to 1000 nM in each case.

With `Cc1cn2cc(NC(=O)c3ccc(N4CCNCC4)c4c3OCO4)cc(F)c2n1` [Compound 642, N-(8-fluoro-2-methyl-imidazo[1,2-a]pyridin-6-yl)-7-piperazin-1-yl-1,3-benzodioxole-4-carboxamide], the GI50 in experiment [1] was in the range of 1000 to 10000 nM. Also, the half-inhibitory concentration (IC50) in the experiment with MYB mRNA [2], in the experiment with HTT mRNA [3], in the experiment on MYB mRNA [4] and in the experiment on HTT mRNA [5] was 1000 to 10000 nM in each case. Moreover, the half-maximal activity concentration (AC50) in the experiment with MYB mRNA [4] and in the experiment on HTT mRNA [5] was 1000 to 10000 nM each time.
